Measurements from patent US11268950B2, “Use of engineered renal tissues in assays” (Organovo, Inc., priority 2016, dated 2022).
Values joined by “and” are separate entries in the source; they are usually repeats but may differ in a detail not shown here. Equal values may be shown once. “Also recorded” adds a separate entry of the source.

How the values were obtained:
SGLT2 = biological target: T1, SGLT2 (Homo sapiens, UniProt P31639); assay: Glucose (2-DG) uptake colorimetric assay in 3D PT tissues; type: cell-based
T1 construct: SGLT2 protein expression was detected primarily at the apical surface of RPTEC on 3D PT tissues; endogenous in cells; host or cells: bioprinted 3D PT tissue: primary human RPTEC on an interstitium of primary human renal fibroblasts and HUVEC
T1 sequence (P31639 1-672): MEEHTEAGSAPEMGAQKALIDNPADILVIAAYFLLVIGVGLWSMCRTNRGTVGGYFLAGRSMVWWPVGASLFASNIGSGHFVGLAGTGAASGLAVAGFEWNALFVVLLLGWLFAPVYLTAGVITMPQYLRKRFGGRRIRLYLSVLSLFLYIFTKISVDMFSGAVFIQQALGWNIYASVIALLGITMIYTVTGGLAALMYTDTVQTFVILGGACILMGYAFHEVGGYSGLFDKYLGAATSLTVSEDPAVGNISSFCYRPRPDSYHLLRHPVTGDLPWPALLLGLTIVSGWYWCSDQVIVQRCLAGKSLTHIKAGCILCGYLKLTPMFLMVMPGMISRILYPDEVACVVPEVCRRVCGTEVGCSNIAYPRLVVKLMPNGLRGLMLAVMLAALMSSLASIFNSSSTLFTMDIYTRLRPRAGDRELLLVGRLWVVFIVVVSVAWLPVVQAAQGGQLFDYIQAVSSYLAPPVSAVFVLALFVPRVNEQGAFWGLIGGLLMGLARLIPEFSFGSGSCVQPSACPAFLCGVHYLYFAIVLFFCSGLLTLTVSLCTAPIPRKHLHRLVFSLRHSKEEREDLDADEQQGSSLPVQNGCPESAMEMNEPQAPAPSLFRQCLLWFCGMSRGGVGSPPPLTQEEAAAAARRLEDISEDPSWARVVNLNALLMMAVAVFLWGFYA
Procedure: Glucose uptake in 3D PT tissues was detected and quantified according to the manufacturer's protocol (Abeam, Cambridge, Mass.). Insulin-Transferrin-Selenium (Gibco, Carlsbad, Calif.) was used to stimulate glucose uptake and canagliflozin (Santa Cruz Biotech, Dallas, Tex.) was used to inhibit SGLT2 function. […] Tissues were then pretreated with 1X insulin or 500 μM canagliflozin for 20 minutes, followed by addition of 1 mM 2-deoxyglucose. Tissues were washed extensively with PBS and lysed in extraction buffer in Precellys® lysis tubes (Precellys, Rockville, Md.).

3D PT tissues [1] = assay: PCNA staining, RPTEC proliferation in 3D PT tissues; type: cell-based, human; conditions: daily for 7 days
Procedure: 3D PT were fixed overnight in 2% paraformaldehyde (Electron Microscopy Sciences, Hatfield, Pa.). Tissues were oriented for transverse sectioning by pre-embedding in HistoGel™ (Thermo Fisher, Carlsbad, Calif.) and were then dehydrated and infiltrated with paraffin by automated processing on a Tissue-Tek VIP® tissue processing system (Sakura Finetek USA, Torrance, Calif.). Tissues were sectioned at 5 μM on a Leica® Reichert-Jung® Histocut microtome (Leica Biosystems, Buffalo Grove, Ill.). Hematoxylin and eosin (H&E) or Gomori's trichrome (TCM) stains were generated using a Leica® Autostainer XL (Leica Biosystems, Buffalo Grove, Ill.) according to manufacturer's instructions. Immunohistochemistry was performed as previously described (King et al., 2013) using the primary antibodies in Table 1. Following overnight incubation with primary antibodies at 4° C., sections were stained with AlexaFluor®-conjugated secondary antibodies (Thermo Fisher, Carlsbad, Calif.) at 1:200 dilution. For P-gp and SGLT2 detection, tyramide signal amplification was performed according to the manufacturer's instructions (Thermo Fisher, Carlsbad, Calif.). Slides were counterstained and mounted with FluoroGel II with DAPI (Electron Microscopy Sciences, Hatfield, Pa.). H&E and TCM images were acquired on a Zeiss® Axioskop with Zeiss® Zen software (Zeiss Microscopy, Thornwood, NY). Immunofluorescent images were acquired on a Zeiss® Axio® Imager A2 with Zeiss® Zen software.

3D PT tissues [2] = conditions: OCT2 inhibition by cimetidine
Source text: 3D PT Novo View™ Tissues were fabricated as described (Nguyen et al., 2016). Briefly, cultured renal fibroblasts and HUVEC were combined in a 50:50 ratio and resuspended in NovoGel® Bio-Ink, and then bioprinted onto 0.4 μm Transwell® clear polyester membrane inserts in a 24-well plate (Coming Costar, Coming, NY) using a NovoGen Bioprinter® Instrument (Organovo Inc., San Diego, Calif.) with previously established protocols (Forgacs et al., 2012; Murphy et al., 2015; Nguyen et al., 2016). Following bioprinting, NovoView′ Tissues were cultured in NovoView™ Kidney Media (Organovo, San Diego, Calif.). On culture day 3, primary RPTEC cells were added to the tissues in a suspension of 1.25×10^6 cells/ml in RPTEC media. […]
Assessment of metabolic activity as a surrogate for tissue viability and health was performed by alamarBlue™ assay according to the manufacturer's protocol (Thermo Fisher, Carlsbad, Calif.). […] After incubation, the alamarBlue′ solution was removed and fluorescence was measured on a BMG Labtech POLARstar® Omega reader (Cary, N.C.) with an excitation filter of 560 nm and an emission filter of 590 nm. Graphed data represent the percent relative fluorescence units (RFU) compared to blank for metabolic activity over time, or the percent RFU compared to vehicle control for toxicity studies.

[3] = humans, Zhang and Zhou, 2012; cited from earlier work
3D PT tissues [4] = assay: GGT activity of 3D PT tissues (epithelial function); type: cell-based, human; conditions: 5 μM cisplatin, daily for 7 days
Procedure: GGT activity was measured according to the manufacturer's protocol (Sigma Aldrich, St. Louis, Mo.). Tissues were washed twice with DPBS and lysed in GGT assay buffer in a Precellys® lysis tube (Precellys, Rockville, Md.). Lysate was assessed for GGT activity by comparison to a standard curve integration of absorbance normalized for volume and duration of incubation period at 37° C. using GraphPad Prism® software (GraphPad, San Diego, Calif.). Data shown represent the average GGT activity in mIU/ml for analysis of GGT function over time, or percent relative to vehicle for toxicity studies.

3D PT tissues [5] = assay: LDH release from 3D PT tissues; type: cell-based, human; conditions: 5 μM cisplatin alone, treatment day 5 (peak)
Procedure: Lactate dehydrogenase (LDH) activity assay was performed according to the manufacturer's protocol (Abcam, Cambridge, Mass.). Conditioned media was collected from 3D PT tissues and further diluted in fresh media to ensure that the LDH activity of the sample was within the linear range of the assay. Samples were measured on a microplate reader (BMG Labtech, Cary, N.C.). LDH activity was determined by standard curve integration of absorbance normalized for volume and duration using GraphPad Prism® software (GraphPad, San Diego, Calif.). Data shown represent the fold change in LDH activity relative to vehicle control for each day of sampling.

3D PT tissues [6] = assay: H&E histology of 3D PT tissues; conditions: daily for 7 days; 5 μM cisplatin, 1 mM cimetidine
Procedure: 3D PT were fixed overnight in 2% paraformaldehyde (Electron Microscopy Sciences, Hatfield, Pa.). Tissues were oriented for transverse sectioning by pre-embedding in HistoGel™ (Thermo Fisher, Carlsbad, Calif.) and were then dehydrated and infiltrated with paraffin by automated processing on a Tissue-Tek VIP® tissue processing system (Sakura Finetek USA, Torrance, Calif.). Tissues were sectioned at 5 μM on a Leica® Reichert-Jung® Histocut microtome (Leica Biosystems, Buffalo Grove, Ill.). Hematoxylin and eosin (H&E) or Gomori's trichrome (TCM) stains were generated using a Leica® Autostainer XL (Leica Biosystems, Buffalo Grove, Ill.) according to manufacturer's instructions. Immunohistochemistry was performed as previously described (King et al., 2013) using the primary antibodies in Table 1. Following overnight incubation with primary antibodies at 4° C., sections were stained with AlexaFluor®-conjugated secondary antibodies (Thermo Fisher, Carlsbad, Calif.) at 1:200 dilution. For P-gp and SGLT2 detection, tyramide signal amplification was performed according to the manufacturer's instructions (Thermo Fisher, Carlsbad, Calif.). Slides were counterstained and mounted with FluoroGel II with DAPI (Electron Microscopy Sciences, Hatfield, Pa.). H&E and TCM images were acquired on a Zeiss® Axioskop with Zeiss® Zen software (Zeiss Microscopy, Thornwood, NY). […]

3D PT tissues [7] = assay: Passive permeability (Papp) of Lucifer yellow across 3D PT tissues; type: in vitro ADME, human; conditions: for Papp: Lucifer yellow 250 μM, 1 h, individual tissues 1-6 and average
Procedure: Tissues were then dosed with 250 μM Lucifer yellow (Thermo Fisher, Carlsbad, Calif.) to the apical compartment and fresh assay buffer in the basolateral (receiver) compartment. Following incubation for 1 h at 37° C., samples were taken from both the apical and basolateral compartments. Fluorescence in each sample was measured on a BMG plate reader with an excitation filter of 490 nm and an emission filter of 540 nm (BMG Labtech, Cary, N.C.) and normalized to a standard curve for quantification. Papp was calculated with equation 1, where V represents the volume of Lucifer yellow solution, T is the duration of the incubation, D0 is the concentration of Lucifer yellow applied to the cells, and A is the growth area of the Transwell® insert. Papp=(V/A×D0))*(ΔD/ΔT) Equation 1: […]

[8] = test system: ExVive™ Human Kidney Tissue; assay: Resazurin conversion in ExVive Human Kidney Tissue; type: cell-based; conditions: 0.37-10 ng/ml daily for seven days
Procedure: (§1) As described in this present disclosure, the ExVive™ Human Kidney Tissue (Organovo, San Diego, Calif.) is a fully human three-dimensional (3D), bioprinted tissue comprised of an apical layer of polarized primary renal proximal tubule epithelial cells (RPTECs) supported by a collagen IV-rich tubulointerstitial interface of primary renal fibroblasts and endothelial cells. As renal fibrosis is a common downstream effect of drug-induced injury, the ExVive™ Human Kidney Tissue was treated with Transforming Growth Factor R (TGFI3 or TGFbeta), a key player of the fibrotic response, for purposes of evaluating tubulointerstitial fibrosis. Thus, to induce renal fibrosis, a healthy ExVive™ Human Kidney Tissue was treated with TGFI3, a key player of the fibrotic response. In particular, each healthy ExVive™ Human Kidney Tissue was dosed daily for seven days with vehicle control, 0.37 ng/ml TGFβ, 1.1ng/m1 TGFβ, 3.3 ng/ml TGFβ, or 10 ng/m1 TGFβ, respectively. Subsequently, after the ExVive™ Human Kidney Tissue was treated with TGFβ, an assessment of the viability and epithelial cell functions of this ExVive™ Human Kidney Tissue was conducted. […] Data shown is the average of 3 tissue samples per condition and is represented as the fold change relative to the vehicle control. *p<0.05; ***p<0.001 for each condition compared to vehicle control.

[9] = test system: ExVive™ Human Kidney Tissue; assay: GGT activity in ExVive Human Kidney Tissue; type: cell-based; conditions: 0.37-10 ng/ml daily for seven days
Procedure: as §1

[10] = test system: ExVive™ Human Kidney Tissue; assay: Fibrosis-related gene expression by semi-quantitative RTPCR; type: cell-based; conditions: 0.37-10 ng/ml daily for seven days
Procedure: Fibrosis-related gene expression was also assessed on this ExVive™ Human Kidney Tissue treated with TGFβ. […] Data shown is the average of 3 tissue samples per condition. *p<0.0001 for each condition compared to vehicle control.

[11] = test system: ExVive™ Human Kidney Tissue; assay: ECM deposition (Gomori's Trichrome, Sirius red) in ExVive tissue; type: cell-based; conditions: 0.37-10 ng/ml daily for seven days
Source text: Data represents the average of 4 technical replicates per tissue, 3 tissues per condition and is represented as the fold change relative to the vehicle control following normalization to total protein content as measured by Fast Green staining. *p<0.05 for each condition compared to vehicle control.

ACE = biological target: T2, ACE (Homo sapiens, UniProt P12821); assay: ACE function: conversion of angiotensin I to angiotensin II (ELISA); type: cell-based; conditions: after 5 ng/ml human angiotensin I for 24 h
T2 construct: ACE protein was detected in both conditioned media and tissue lysates, with higher detection in the tissue lysates; endogenous in cells; host or cells: bioprinted 3D PT tissue: primary human RPTEC on an interstitium of primary human renal fibroblasts and HUVEC
T2 sequence (P12821 30-1306): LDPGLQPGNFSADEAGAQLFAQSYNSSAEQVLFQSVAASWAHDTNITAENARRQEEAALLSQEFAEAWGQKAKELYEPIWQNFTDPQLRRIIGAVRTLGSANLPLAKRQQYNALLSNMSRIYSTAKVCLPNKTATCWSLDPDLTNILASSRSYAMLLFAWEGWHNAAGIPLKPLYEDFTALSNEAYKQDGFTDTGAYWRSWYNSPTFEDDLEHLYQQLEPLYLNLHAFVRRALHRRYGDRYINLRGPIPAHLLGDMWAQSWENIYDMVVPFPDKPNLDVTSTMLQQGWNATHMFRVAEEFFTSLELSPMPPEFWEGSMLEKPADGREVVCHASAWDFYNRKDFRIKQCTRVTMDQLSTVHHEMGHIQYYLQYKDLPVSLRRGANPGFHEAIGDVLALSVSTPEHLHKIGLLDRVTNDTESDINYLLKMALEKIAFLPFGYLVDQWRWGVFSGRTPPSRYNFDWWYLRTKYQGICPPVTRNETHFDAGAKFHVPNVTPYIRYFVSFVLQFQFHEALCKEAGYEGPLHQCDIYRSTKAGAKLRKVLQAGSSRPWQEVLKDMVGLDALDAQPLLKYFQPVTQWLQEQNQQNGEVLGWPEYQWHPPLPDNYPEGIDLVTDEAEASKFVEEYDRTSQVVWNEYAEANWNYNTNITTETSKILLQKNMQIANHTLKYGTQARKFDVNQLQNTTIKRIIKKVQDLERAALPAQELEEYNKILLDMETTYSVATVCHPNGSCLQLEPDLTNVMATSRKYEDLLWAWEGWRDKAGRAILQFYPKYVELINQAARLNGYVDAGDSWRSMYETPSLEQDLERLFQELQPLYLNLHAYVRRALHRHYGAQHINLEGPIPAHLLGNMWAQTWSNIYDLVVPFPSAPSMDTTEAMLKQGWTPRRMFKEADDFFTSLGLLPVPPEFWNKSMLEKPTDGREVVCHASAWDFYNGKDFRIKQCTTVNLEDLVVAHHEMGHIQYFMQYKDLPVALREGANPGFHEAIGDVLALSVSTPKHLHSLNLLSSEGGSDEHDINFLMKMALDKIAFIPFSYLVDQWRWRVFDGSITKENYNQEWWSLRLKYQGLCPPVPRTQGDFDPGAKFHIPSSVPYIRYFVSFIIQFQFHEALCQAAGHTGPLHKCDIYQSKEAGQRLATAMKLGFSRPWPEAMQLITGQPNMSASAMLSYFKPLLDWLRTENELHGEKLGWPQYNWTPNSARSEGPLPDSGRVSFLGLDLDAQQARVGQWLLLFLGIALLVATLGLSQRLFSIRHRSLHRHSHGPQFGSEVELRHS
Procedure: To evaluate ACE enzyme function, 3D PT tissues were treated for 24 h with 5 ng/ml human angiotensin I (Abeam, Cambridge, Mass.) and angiotensin II was then detected using a competitive ELISA kit from Sigma per the manufacturer's instructions (Sigma-Aldrich, St. Louis, Mo.). Plates were read at 450 nm within 30 minutes of addition of the stop solution (BMG Labtech, Cary, N.C.). The concentration of angiotensin II in the test samples was determined by comparison to the standard curve using GraphPad Prism® software (GraphPad, San Diego, Calif.).

P-gp = biological target: T3, P-gp (Homo sapiens, UniProt P08183); assay: Rhodamine 123 transport / P-gp efflux in 3D PT tissues; type: cell-based; conditions: image quantification, 2 h, 5 μM zosuquidar
T3 construct: P-gp protein expression was detected at the apical surface of the RPTEC cells in the 3D PT model; endogenous in cells; host or cells: bioprinted 3D PT tissue: primary human RPTEC on an interstitium of primary human renal fibroblasts and HUVEC
T3 sequence (P08183 whole entry): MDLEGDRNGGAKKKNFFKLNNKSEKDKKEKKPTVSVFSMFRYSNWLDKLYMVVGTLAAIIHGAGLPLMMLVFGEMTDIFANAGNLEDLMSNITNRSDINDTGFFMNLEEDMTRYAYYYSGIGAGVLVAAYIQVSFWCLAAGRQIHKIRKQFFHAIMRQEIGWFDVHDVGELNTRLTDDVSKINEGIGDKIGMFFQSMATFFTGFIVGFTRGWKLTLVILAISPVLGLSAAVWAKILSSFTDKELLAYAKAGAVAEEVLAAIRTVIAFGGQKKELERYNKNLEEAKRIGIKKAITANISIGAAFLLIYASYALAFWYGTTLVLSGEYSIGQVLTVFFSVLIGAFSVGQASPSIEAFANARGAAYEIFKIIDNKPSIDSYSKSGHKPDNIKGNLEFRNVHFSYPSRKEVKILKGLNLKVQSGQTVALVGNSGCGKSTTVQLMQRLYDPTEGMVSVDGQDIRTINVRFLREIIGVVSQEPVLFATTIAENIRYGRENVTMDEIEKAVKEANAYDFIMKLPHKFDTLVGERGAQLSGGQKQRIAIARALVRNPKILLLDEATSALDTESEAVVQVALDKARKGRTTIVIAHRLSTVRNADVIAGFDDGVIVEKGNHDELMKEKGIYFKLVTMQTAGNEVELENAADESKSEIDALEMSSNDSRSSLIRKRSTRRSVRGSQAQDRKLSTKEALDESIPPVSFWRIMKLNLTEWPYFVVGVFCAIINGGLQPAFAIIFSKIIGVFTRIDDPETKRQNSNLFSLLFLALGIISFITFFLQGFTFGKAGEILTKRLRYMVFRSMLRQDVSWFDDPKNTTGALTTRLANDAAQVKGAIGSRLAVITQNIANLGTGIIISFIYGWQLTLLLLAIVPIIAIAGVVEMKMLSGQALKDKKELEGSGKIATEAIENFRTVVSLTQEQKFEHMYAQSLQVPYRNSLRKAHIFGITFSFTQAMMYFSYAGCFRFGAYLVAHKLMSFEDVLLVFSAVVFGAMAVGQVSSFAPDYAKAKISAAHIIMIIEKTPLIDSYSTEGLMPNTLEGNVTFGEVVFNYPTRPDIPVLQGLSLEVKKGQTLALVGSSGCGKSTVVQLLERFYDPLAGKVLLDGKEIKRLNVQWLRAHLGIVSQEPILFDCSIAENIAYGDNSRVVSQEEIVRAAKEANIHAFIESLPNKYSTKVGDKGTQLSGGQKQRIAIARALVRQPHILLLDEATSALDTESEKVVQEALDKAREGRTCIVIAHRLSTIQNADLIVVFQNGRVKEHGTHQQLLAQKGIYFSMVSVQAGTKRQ
Procedure: Both apical and basolateral sides of tissues were then pre-incubated for 20 min at 37° C. in assay buffer in the presence or absence of 5 μM zosuquidar (Sigma Aldrich, St. Louis, Mo.). Following pre-treatment, tissues were dosed on the basolateral side with 1 μM rhodamine 123 (Molecular Probes, Eugene, Oreg.) with or without 5 μM zosuquidar for 2h at 37° C. After incubation, the tissues were washed with cold assay buffer, fixed with 2% PFA, and cryosectioned. Images were captured at the same exposure time across all conditions. Fluorescence intensity, corrected for background and relative area, was calculated in Image J (National Institutes of Health, Bethesda, Md.) and graphed as fold change relative to control using GraphPad Prism® software (GraphPad, San Diego).

For Cc1ccc([C@@H]2O[C@H](CO)[C@@H](O)[C@H](O)[C@H]2O)cc1Cc1ccc(-c2ccc(F)cc2)s1 [canagliflozin], the “decrease of insulin-induced intracellular 2-DG” value (SGLT2; normal tissue media, co-administration with insulin, 500 μM canagliflozin) was 50% and the “effect on insulin-induced glucose uptake” value (SGLT2; tissues starved overnight, 500 μM canagliflozin) was “significantly reduced by canagliflozin to levels indistinguishable from the control tissues”.
In the case of CN/C(=N/CCSCc1nc[nH]c1C)NC#N [cimetidine], the “RPTEC proliferation (PCNA)” value (3D PT tissues [1]) is listed as “low levels of RPTEC proliferation”, the “protection against cisplatin-induced loss of viability and epithelial function” value (3D PT tissues [2]) is listed as “successfully protected” and the “urinary cystatin C following cisplatin administration” value [3] is listed as “decreased urinary cystatin C”.
With N.N.[Cl][Pt][Cl] [cisplatin] the “reduction in GGT activity” value (3D PT tissues [4]) was roughly 50%, the “LDH release, increase over vehicle controls” value (3D PT tissues [5]) was 3 fold and the “RPTEC proliferation (PCNA)” value (3D PT tissues [1]) was “dose-dependent proliferative response; also recorded: dose-dependent increase in proliferating RPTEC”. For the same compound, the “epithelial morphology (H&E)” value (3D PT tissues [6]) was “more squamous morphology and loss of nuclei”.
In the case of Lucifer yellow, the Papp (3D PT tissues [7]) is reported as 2.93e-06 cm/s and 2.63e-06 cm/s and 2.73e-06 cm/s and 2.66e-06 cm/s and 3.74e-06 cm/s and 3.11e-06 cm/s, the Papp (3D PT tissues [7]; mean) is reported as 2.97 ± 0.17 ×10^−6 cm/s and the “average Papp” value (3D PT tissues [7]; Lucifer yellow, 3D PT tissues) is reported as 2.97 ×10⁻⁶ cm/s.
In the case of TGFβ, the “Resazurin conversion (overall tissue metabolic activity)” value [8] is reported as “No statistically significant differences”, the “GGT activity (epithelial cell function)” value [9] is reported as “Statistically significant reduction in RPTEC function was detected with higher doses; also recorded: loss of epithelial cell function at the highest dose” and the “fibrosis-related gene expression (COL1A1, CTGF, FAP, PDGFRB)” value [10] is reported as “induction of the fibrotic markers; also recorded: increase in the expression of fibrosis-related genes”. The “tissue thickness and extracellular matrix deposition” value [11] was “induces tissue thickening and increased extracellular matrix deposition; also recorded: extensive ECM deposition in the interstitium”.
With “angiotensin I: human angiotensin I (Abcam), ACE substrate (DRVYIHPFHL; Angiotensin-1; UniProt P01019 25-34, looked up)” the “angiotensin II detected” value (ACE) was 0.4 pg/mL.
In the case of “insulin: Insulin-Transferrin-Selenium (Gibco) used to stimulate glucose uptake”, the “increase in intracellular 2-DG” value (SGLT2; tissues in normal tissue media) is reported as 4 fold and the “increase in glucose uptake” value (SGLT2; tissues starved overnight) is reported as 8 fold.
For rhodamine 123 [R123], the “increase in fluorescence over control tissues” value (P-gp) was 4 fold.
